For 15 substances, ELISpot, cytokine and cytotox results are on record in patent publication US20260240975A1, “VALIDATED HPV16-DERIVED S[…]” (Deutsches Krebsforschungszentrum Stiftung des öffentlichen …, priority 2023, published 2026).

Like-named read-outs stand apart in the source and are kept apart here. No end group written: not given here.

Data set [1] concerns short-term antigen-specific T cell lines generated from PBMCs. Also noted: key: +: ELISPOT: Immungenicity of the peptide shown by IFN-gamma ELISPOT analysis; * Highlights data from published resources; +*: * Highlights data from published resources. The settings on record: marked * (published resources), cited from earlier work.
Data set [2] has the same test system. Put plainly: Interferon-γ ELISpot assay on short-term T cell lines. The format is cell-based, human. Set-up: key: +: ELISPOT: Immungenicity of the peptide shown by IFN-gamma ELISPOT analysis; * Highlights data from published resources; +*: * Highlights data from published resources.
The subject of data set [3] is peptide-specific T cell cultures. Put plainly: T cell phenotyping and intracellular cytokine staining (flow cytometry). The format is cell-based, human. Also noted: key: +: cytokine: Immunogenicity of the peptide shown by intracellular cytokine staining (IFN-gamma, TNF-alpha). To be noted: IFN-gamma, TNF-alpha. (In flow cytometry, cells or beads pass a laser one at a time.)

A further data set deals with HPV16-positive cells. Nature of the data set: Cytotoxicity assay (VITAL FR / live-cell imaging) with peptide-specific CD8+ T cells. The format is cell-based, human. Set-up: key: +: cytotox: Ability of peptide-specific T cells to kill HPV16-positive cells. As to the method: The flow cytometry based VITAL FR cytotoxicity assay was used as published by Stanke et al. (Stanke et al., 2010) to assess whether peptide-specific T cells are able to specifically kill HPV-transformed target cells. Briefly, two HLA-A2^+ cell lines, a HPV16-negative (HPV16^−) control cell line (C33A) and a HPV16-positive (HPV16^+) target cell line (CaSki) were fluorescently labeled with either FarRed or CFSE and were co-incubated with peptide-specific CD8^+ T cells as effector cells. After 48 h co-incubation, the fluorescently labeled cells were analyzed by flow cytometry to determine the surviving cells and calculate the specific cytolytic function of the effector cells by the ratio of target and control cells.
CaSki and C33A cells were fluorescently labeled with CFSE and FarRed, respectively. Cells of both cell lines were harvested and resuspended in plain RPMI medium at a concentration of 1×10^6 cells/mL. For cell labeling, 5 μM CSFE were added to CaSki cells and 0.25 μM FarRed were added to C33A cells. The cells were incubated at 37° C. and the reaction was stopped after 10 min by addition of 50 mL RPMI with 10% FBS. The cells were centrifuged at 300 xg for 5 min, the supernatant was discarded and the cells were resuspended in their cell culture medium. The labeled cells were seeded in T25 cell culture flasks with 1-2×10^6 cells/flask.
On the next day, the labeled CaSki and C33A as well as the epitope-specific semi-long-term T cell lines (described in 1.6) were harvested. CD8^+ T cells were isolated from the epitope-specific semi-long-term T cell lines using the MACS CD8^+ T cell isolation kit (Miltenyi Biotec) according to the manufacturer's protocol for LS columns. The CD8^+ T cells were resuspended in T cell medium and added to wells of a F-bottom 96-well plate in serial dilutions to achieve triplicates of 6×10^4, 3×10^4, 1.5×10^4, 0.75×10^4 and 0.375×10^4 cells per well. The CaSki and C33A cells were mixed 1:1 in T cell medium and 3×10^3 cells were added to each well containing T cells. Thereby effector:target (E:T) ratios of […] were achieved. Additionally, triplicates of mixed target cells without T cells were seeded, which is referred to as E:T 0. After 48 h incubation at 37° C., 5% CO2, the cells were harvested and analyzed at a BD FACS Canto™ II analyzer using the BD FACS Diva Software Version 6. The obtained data were analyzed with the FlowJo software Version 10 by applying the same gating strategy to all samples. Subsequently, the equations (1) and (2) given below were applied in Excel (Microsoft Office 2016) to calculate specific killing.
Semi long-term T cell lines were set up to obtain high numbers of T cells, which are required for the analysis of epitope specific cytotoxic T cell responses in VITAL FR cytotoxicity assays. Autologous DCs were generated from PBMCs as described in 1.7 and loaded with the desired HPV16 peptide. PBMCs of the same donor were thawed and resuspended in T cell medium supplemented with rhIL-7 (10 ng/mL) and rhIL-15 (20 ng/mL). 1×10^7 PBMCs/well were seeded to a 24-well plate in a total volume of 1 mL/well. Peptide-loaded DCs were added in a ratio of 50:1 (PBMCs:DCs) in 1 mL rhIL-7 (10 ng/mL) and rhIL-15 (20 ng/mL) supplemented T cell medium to achieve a final volume of 2 mL. The cell cultures were fed with rhIL-2 (final concentration: 40 U/mL) every other day. If the medium turned yellow the feeding was combined with a half medium change with 1 mL fresh IL-2 supplemented T cell medium. After eight days, the peptide stimulation with peptide-loaded DCs was repeated and cultivation was continued. On day 15, the T cell lines were harvested and used for CD8^+ T cell isolation and cytotoxicity assays.
In addition to the VITAL FR assay described herein above, a newly established live-cell imaging-based cytotoxicity assay was applied. […]

Regarding “1 (ISEYRHYCY; Human papillomavirus 16) [compound 1]”, in data set [1] (HLA restriction A01), the ELISpot result is “+*”.
Take “2 (HGDTPTLHEY; Human papillomavirus 16) [compound 2]”: in data set [1] (HLA restriction A01), the ELISpot result is on record as “+*”.
Turning to “34 (CVYCKQQLLR; Human papillomavirus 16) [compound 34]”, the ELISpot entry in data set [2] (HLA restriction A03) was “+”; in data set [1] (HLA restriction A11) it was “*”.
For “43 (AVCDKCLKFY; Human papillomavirus 16) [compound 43]”, the ELISpot entry in data set [2] (HLA restriction A03) is “+”; in data set [2] (HLA restriction B15), “+”; in data set [1] (HLA restriction A11), “+*”. The cytokine result in data set [3] (HLA restriction A03), in data set [3] (HLA restriction A11) and in data set [3] (HLA restriction B15) was “+” in each case.
Consider “61 (RAHYNIVTF; Human papillomavirus 16) [compound 61]”, for which the ELISpot result is reported as “+” in data set [2] (HLA restriction B15) and “+*” in data set [1] (HLA restriction B07).
Turning to “62 (TFCCKCDSTL; Human papillomavirus 16) [compound 62]”, in data set [2] (HLA restriction A24), the ELISpot entry is recorded as “+”. The cytotox entry in the data set on HPV16-positive cells (HLA restriction A24) is listed as “+”.
Take “77 (TPTLHEYML; Human papillomavirus 16) [compound 77]”: the ELISpot result in data set [1] (HLA restriction B07) is on record as “*”.
In the case of “87 (LQPETTDLY; Human papillomavirus 16) [compound 87]”, the cytokine entry in data set [3] (HLA restriction B15) was “+”. Moreover, in data set [1] (HLA restriction B15), the ELISpot result is given as “+*”.
In the case of IRTLEDLLMGT [compound 33], the cytotox result in the data set on HPV16-positive cells (HLA restriction A02) is “+”.
The same measure, in the same setting: the same measure for LLMGTLGIVCP [compound 25]: “+”; for LMGTLGIVCPI [compound 12]: “+”; for MGTLGIVCPI [compound 14]: “+”.
Same read-out and setting: the same measure for RLCVQSTHV [compound 11]: “+”; for TTIHDIILECV [compound 30]: “+”.
Still for that read-out and setting: the value for YMLDLQPE [compound 13] was “+”.
